Laboratory results taken from patent US20190321355A1, “TREATMENT OF MENTAL, MOVEMENT AND BEHAVIORAL DISORDERS” (priority 2016, published 2019).
Where a name gives a salt, the structure may show the parent alone. Read-outs that look alike come from different tables or passages of the source.

Legend:
C57BL/6JOlaHsd mice [1] = format: in vivo; details: for DOI-induced repetitive head twitches: dose not given
[2] = system: CB2 receptor knockout mice; experiment: DOI-induced head twitch response (HTR) in CB2 receptor knockout mice; format: in vivo
Protocol: (§1) • 1. CB2 receptor selective ligands or CB2/SERM ligands were injected intraperitoneally or orally at doses of 0.001 to 100 mg/kg one to two hours before the injection of DOI. In order to test the effect of DOI on head twitch responses, ear scratch and grooming responses, DOI was intraperitoneally injected at a dose of 1 mg/kg.
(§2) After DOI or saline injection, mice were placed in a transparent glass cage 30×40×31 cm divided into squares of 7.5×7.5 cm. Head twitch responses (HTRs) were manually counted by an observer. The HTR in mice is a distinctive behavior that cannot be misplaced with other head movements. After 5 min habitation to the cage the HTR were counted every 3 min for 15 min (a total of 20 min in the cage).
(§3) With a view to further study the effect of the MH compositions on repetitive behavior, CB2 receptor knockout mice (The Jackson Laboratory) were intraperitoneally injected at age 3 weeks or 6 weeks with a single dose of MH at 0.2-50 mg/kg or equivalent vehicle. One hour later mice were intraperitoneally injected a single dose of 1 mg/kg DOI or saline. HTR responses, grooming and ESR responses in mice were recorded.
as §3, with “HU-308” for “MH”, “6-21” for “6”, “responses” for “responses, grooming”

C57BL/6JOlaHsd mice [3] = experiment: DOI-induced ear scratch response (ESR) / urge-like behavior; format: in vivo
Protocol: as §1
(§4) ESR behavior is a measure for urge-like behavior and often preceded HTRs. The ESR is a rapid scratching movement of the head, neck, ears, or other body surfaces by either hindlimbs. The number of ESRs was manually counted. Every ESR was also counted as a grooming. In some experiments, each ESR was considered as a separate episode if the animal moved. In some experiments, each ESR was considered as a separate episode for every ESR.
as §3, with “In order” for “With a view”, “C57BL/6JOlaHsd” for “CB2 receptor knockout”, “mice” for “mice (The Jackson Laboratory)”, “responses” for “responses, grooming”

C57BL/6JOlaHsd mice [4] = experiment: Head twitch response after drug alone (saline instead of DOI); format: in vivo
Protocol: as §2
(§5) With a view to further study the effect of the MH compositions on repetitive behavior, C57BL/6JOlaHsd mice were intraperitoneally injected at age 3 weeks or 6 weeks with a single dose of MH at 0.2-50 mg/kg or equivalent vehicle. Optionally, one hour later mice received a single injection of saline (i.e. in the absence of DOI to test the effect of MH alone). HTR responses, ESR and grooming responses in mice were recorded.
as §5, with “HU-308” for “MH”, “weeks” for “weeks or 6 weeks”, “vehicle” for “vehicle. Optionally,”, “responses and” for “responses,”, “ESR” for “ESR and grooming”

[5] = 5 mg/kg during postnatal days 5-13; U.S. Pat. No. 9,486,419; cited from earlier work
C57BL/6JOlaHsd mice [6] = experiment: Marble burying test (compulsive behavior); format: in vivo; details: age 6 weeks, one hour after a single injection
Protocol: Mice were habituated to the test room for 1 h. A mouse was injected with DOI as above and then placed in the experimental cage (white plastic 36×24.5 ×14.5 cm) filled with 5 cm sawdust for 5 min, in the absence of marbles. The mouse was taken out and twenty black glass were arranged 4 by 5 with 7 cm apart and 1 cm apart from the wells of the cage. Each mouse was tested for its marble burying activity for 30 min. Activity was videotaped with EthoVision and buried marbles were counted manually at the end of the experiment (after 30 min). A marble considered as buried when it was sawdust-covered by two third of its volume. Marbles that were moved were also counted.
With a view to study the effect of the JTE-907 and M1 compositions on repetitive behavior, C57BL/6JOlaHsd mice were intraperitoneally injected at age 6 weeks with a single dose of JTE-907 at 0.2-50 mg/kg, M1 at 0.2-50 mg/kg or equivalent vehicle. The number of buried marbles in the burying marble test by each mouse was recorded.

C57BL/6JOlaHsd mice [7] = experiment: ESR/grooming (urge-like response) after drug alone; format: in vivo; details: doses 1-20 mg/kg i.p., age 6 weeks, no DOI
Source text: as §4
Grooming behavior is a measure for anxiety. Grooming behavior in mice is characterized by licking its fur, groom with the forepaws, or scratch with any limb. Often the mouse will mix all of these grooming behaviors. The number of grooms was manually counted. In some experiments, each grooming behavior was considered as a separate episode if the animal moved its hindlimbs. In some experiments, each grooming behavior was considered as a separate episode for every grooming behavior.
as §5

Sabra mice = experiment: Ultrasonic vocals, SR141716A-induced vocal tic-like behavior; format: in vivo
CB2 receptor = CB2 receptor (Homo sapiens, UniProt P34972); details: Schuehly et al. 2011; read-out: Ki, CB2 receptor ligand; cited from earlier work
Chain of CB2 receptor (P34972 whole entry): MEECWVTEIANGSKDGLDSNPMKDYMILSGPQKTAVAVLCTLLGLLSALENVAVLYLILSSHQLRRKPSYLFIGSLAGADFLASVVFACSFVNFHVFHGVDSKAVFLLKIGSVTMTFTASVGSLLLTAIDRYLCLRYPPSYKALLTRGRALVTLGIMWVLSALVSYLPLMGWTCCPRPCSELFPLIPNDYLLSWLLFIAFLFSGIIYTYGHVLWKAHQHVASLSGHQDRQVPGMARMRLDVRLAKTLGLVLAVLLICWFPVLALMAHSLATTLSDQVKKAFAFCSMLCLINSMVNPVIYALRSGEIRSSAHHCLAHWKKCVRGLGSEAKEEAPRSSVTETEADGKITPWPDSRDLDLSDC

[8] = 0.2 mg/kg i.p., age 3 weeks, one hour before DOI
[9] = 5 mg/kg i.p., age 3 weeks, one hour before DOI 1 mg/kg
[10] = 10 mg/kg i.p. single dose, age 3 weeks, one hour before DOI 1 mg/kg i.p.

COc1cc(CC(C)N)c(OC)cc1I.Cl (single isomer, unassigned; (-)) [DOI, (−)-1-(2,5-dimethoxy-4-iodophenyl)-2-aminopropane hydrochloride]
HTR frequency, model mice (DOI) vs control mice (C57BL/6JOlaHsd mice [1]; DOI 1 mg/kg i.p., age 3 weeks): increased
HTR frequency in CB2 receptor knockout mice after DOI ([2]; DOI 1 mg/kg i.p., age 6 weeks): increased
ESR frequency, DOI vs control mice (C57BL/6JOlaHsd mice [3]; DOI 1 mg/kg i.p.): increased

C=C1CC/C=C(\C)CC[C@@H]2[C@@H]1CC2(C)C [BCP, beta-caryophyllene]
DOI-induced repetitive head twitches (C57BL/6JOlaHsd mice [1]): able to reduce

CCCCCCC(C)(C)c1cc(OC)c([C@@H]2C=C(CO)[C@@H]3C[C@H]2C3(C)C)c(OC)c1 [HU-308, [(1R,2R,5R)-2-[2,6-dimethoxy-4-(2-methyloctan-2-yl)phenyl]-7,7-dimethyl-4-bicyclo[3.1.1]hept-3-enyl] methanol]
DOI-induced HTR frequency (C57BL/6JOlaHsd mice [1]; [8]): reduced
DOI-induced HTR frequency (C57BL/6JOlaHsd mice [1]; [9]): reduced
DOI-induced repetitive head twitches (C57BL/6JOlaHsd mice [1]): able to reduce
DOI-induced HTR frequency in CB2 receptor knockout mice ([2]; 5 mg/kg i.p., male, age 6-21 weeks, DOI 1 mg/kg): significantly reduces
repetitive behavior (HTR), drug alone (C57BL/6JOlaHsd mice [4]; 0.2 mg/kg i.p., age 3 weeks, saline instead of DOI): significantly increased
motor tics/head twitches at the age of 12 weeks, open field test [5]: induce abnormal motor tics/head twitches

CCCCCOc1c(OC)ccc2cc(C(=O)NCc3ccc4c(c3)OCO4)c(=O)[nH]c12 [JTE-907, N-(benzo[1,3]dioxol-5-ylmethyl)-7-methoxy-2-oxo-8-pentyloxy-1,2-dihydroquinoline-3-carboxamide]
DOI-induced HTR frequency (C57BL/6JOlaHsd mice [1]; [8]): reduced
DOI-induced HTR frequency (C57BL/6JOlaHsd mice [1]; [9]): reduced
number of buried marbles (C57BL/6JOlaHsd mice [6]; 5 mg/kg i.p.): reduced

C=CCc1ccc(O)c(-c2ccc(OC)c(CC=C)c2)c1 [MH, 2-(4-Methoxy-3-prop-2-enylphenyl)-4-prop-2-enylphenol]
DOI-induced HTRs (C57BL/6JOlaHsd mice [1]; 1 mg/kg i.p., age 3 weeks, one hour before DOI 1 mg/kg): reduced
DOI-induced HTRs (C57BL/6JOlaHsd mice [1]; 1 mg/kg i.p., age 6 weeks, one hour before DOI 1 mg/kg): reduced
DOI-induced HTR frequency (C57BL/6JOlaHsd mice [1]; 1 mg/kg oral (gavage) in self-emulsifying oral formulation, age 3 weeks, two hours before DOI 1 mg/kg i.p.): significantly reduced
DOI-induced HTR frequency (C57BL/6JOlaHsd mice [1]; [9]): reduced
DOI-induced HTRs (C57BL/6JOlaHsd mice [1]; 5 mg/kg i.p., age 6 weeks, one hour before DOI 1 mg/kg): reduced
DOI-induced HTR frequency (C57BL/6JOlaHsd mice [1]; 5 mg/kg oral (gavage) in self-emulsifying oral formulation, age 3 weeks, two hours before DOI 1 mg/kg i.p.): significantly reduced
effect to reverse DOI-induced HTR, age 3 weeks vs 6 weeks (C57BL/6JOlaHsd mice [1]; i.p., after 20 min from DOI injection): higher at age 3 weeks than 6 weeks
effect on DOI-induced HTR frequency, 1 mg/kg vs 5 mg/kg (C57BL/6JOlaHsd mice [1]; oral formulation, age 3 weeks): greater than this of 5 mg/kg
DOI-induced HTR frequency in CB2 receptor knockout mice ([2]; mouse, in vivo): did not reduce
frequency of DOI-induced ESR behavior (C57BL/6JOlaHsd mice [3]; i.p., one hour before DOI 1 mg/kg): reduced
HTR, drug alone (C57BL/6JOlaHsd mice [4]; doses 1-20 mg/kg i.p., age 6 weeks, no DOI): did not induce HTR at any dose
urge-like response (grooming/ESR), drug alone (C57BL/6JOlaHsd mice [7]): did not induce urge-like response at any dose
vocal tic-like behavior (number of ultrasonic vocal events) (Sabra mice; SR141716A 5 mg/kg s.c. postnatal day 1-3, drug s.c. at age 13 days, one hour before recording): significantly reduces
number of buried marbles (C57BL/6JOlaHsd mice [6]; 10 mg/kg i.p.): reduced
Ki (CB2 receptor): 0.05 µM

Cc1c(C(=O)NN2CCCCC2)nn(-c2ccc(Cl)cc2Cl)c1-c1ccc(Cl)cc1 [SR141716A]
vocalization vs control litter mates (Sabra mice; administered to mice pups at the age of one to two days): higher level of vocalization and/or higher number of vocals

CCN(CC)CCOc1ccc(C(=C(Cl)c2ccccc2)c2ccccc2)cc1 [clomiphene citrate]
DOI-induced HTR frequency (C57BL/6JOlaHsd mice [1]; [10]): did not significantly reverse

O=C(c1ccc(OCCN2CCCCC2)cc1)c1c(-c2ccc(O)cc2)sc2cc(O)ccc12 [raloxifene]
DOI-induced HTR frequency (C57BL/6JOlaHsd mice [1]; [10]): reduced
